# According to the supplement of paper PMC5908809:
# Experiments:
# [1] = tested on: normal NK cells expanded with K562-aAPC; experiment: percent inhibition of viability; higher = more inhibition; conditions: 72 h, IL-2 2.5 ng/mL
# Method: (§1)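 Drug sensitivity and resistance testing on K562-aAPC-expanded normal NK cells: 5 concentrations (10-fold steps over a 10,000-fold range), 72 h at 37 °C, viability by CellTiter-Glo normalised to DMSO and benzethonium chloride controls; DSS from the fitted curve.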
# [2] = tested on: DERL-7 (IL-2 2.5 ng/mL); experiment: as above; conditions: 72 h
# [3] = tested on: IMC-1 (IL-2 20 ng/mL); experiment: as above; conditions: 72 h
# [4] = tested on: KAI3 (IL-2 2.5 ng/mL); experiment: as above; conditions: 72 h
# [5] = tested on: KHYG-1 (IL-2 2.5 ng/mL); experiment: as above; conditions: 72 h
# [6] = tested on: NK-92 (IL-2 2.5 ng/mL); experiment: as above; conditions: 72 h
# [7] = tested on: NK-YS (IL-2 2.5 ng/mL); experiment: as above; conditions: 72 h
# [8] = tested on: NKL (IL-2 2.5 ng/mL); experiment: as above; conditions: 72 h
# [9] = tested on: SNK-6 (IL-2 2.5 ng/mL); experiment: as above; conditions: 72 h
# [10] = tested on: YT (IL-2 2.5 ng/mL); experiment: as above; conditions: 72 h
# [11] = tested on: normal primary NK cells, pool 1 (3 donors) (IL-2 2.5 ng/mL); experiment: as above; conditions: 72 h
# [12] = tested on: normal primary NK cells, pool 1 (3 donors), resting (IL-2 0 ng/mL); experiment: as above; conditions: 72 h
# [13] = tested on: normal primary NK cells, pool 2 (3 donors) (IL-2 2.5 ng/mL); experiment: as above; conditions: 72 h
# [14] = tested on: normal primary NK cells, pool 3 (3 donors) (IL-2 2.5 ng/mL); experiment: as above; conditions: 72 h
# [15] = tested on: normal NK cells expanded with K562-aAPC; experiment: drug sensitivity score (DSS) (DSS units); higher = more sensitive; extreme values may be limits of the assay; conditions: 72 h; IL-2 2.5 ng/mL
# Method: as §1
# [16] = tested on: DERL-7 (IL-2 2.5 ng/mL); experiment: as above; conditions: 72 h
# [17] = tested on: IMC-1 (IL-2 20 ng/mL); experiment: as above; conditions: 72 h
# [18] = tested on: KAI3 (IL-2 2.5 ng/mL); experiment: as above; conditions: 72 h
# [19] = tested on: KHYG-1 (IL-2 2.5 ng/mL); experiment: as above; conditions: 72 h
# [20] = tested on: NK-92 (IL-2 2.5 ng/mL); experiment: as above; conditions: 72 h
# [21] = tested on: NK-YS (IL-2 2.5 ng/mL); experiment: as above; conditions: 72 h
# [22] = tested on: NKL (IL-2 2.5 ng/mL); experiment: as above; conditions: 72 h
# [23] = tested on: SNK-6 (IL-2 2.5 ng/mL); experiment: as above; conditions: 72 h
# [24] = tested on: YT (IL-2 2.5 ng/mL); experiment: as above; conditions: 72 h
# [25] = tested on: normal primary NK cells, pool 1 (3 donors) (IL-2 2.5 ng/mL); experiment: as above; conditions: 72 h
# [26] = tested on: normal primary NK cells, pool 1 (3 donors), resting (IL-2 0 ng/mL); experiment: as above; conditions: 72 h
# [27] = tested on: normal primary NK cells, pool 2 (3 donors) (IL-2 2.5 ng/mL); experiment: as above; conditions: 72 h
# [28] = tested on: normal primary NK cells, pool 3 (3 donors) (IL-2 2.5 ng/mL); experiment: as above; conditions: 72 h
smiles,measurement,setting,value
CC(C)C[C@@H](C(=O)N[C@H](C(=O)OC1CCCC1)c1ccccc1)[C@H](O)C(=O)NO [Tosedostat] (max concentration tested 10000 nM),percent inhibition of viability,[1]; 1 nM,-1.88%
same,percent inhibition of viability,[1]; 10 nM,6.85%
same,percent inhibition of viability,[1]; 100 nM,7.57%
same,percent inhibition of viability,[1]; 1000 nM,15.4%
same,percent inhibition of viability,[1]; 10000 nM,28.1%
same,percent inhibition of viability,[2]; 1 nM,0.91%
same,percent inhibition of viability,[2]; 10 nM,28.1%
same,percent inhibition of viability,[2]; 100 nM,38.8%
same,percent inhibition of viability,[2]; 1000 nM,57.2%
same,percent inhibition of viability,[2]; 10000 nM,60.4%
same,percent inhibition of viability,[3]; 1 nM,1.56%
same,percent inhibition of viability,[3]; 10 nM,3.44%
same,percent inhibition of viability,[3]; 100 nM,2.86%
same,percent inhibition of viability,[3]; 1000 nM,-8.8%
same,percent inhibition of viability,[3]; 10000 nM,34.8%
same,percent inhibition of viability,[4]; 1 nM,-9.18%
same,percent inhibition of viability,[4]; 10 nM,-2.01%
same,percent inhibition of viability,[4]; 100 nM,1.91%
same,percent inhibition of viability,[4]; 1000 nM,5.58%
same,percent inhibition of viability,[4]; 10000 nM,19.7%
same,percent inhibition of viability,[5]; 1 nM,-2.21%
same,percent inhibition of viability,[5]; 10 nM,-0.34%
same,percent inhibition of viability,[5]; 100 nM,2.84%
same,percent inhibition of viability,[5]; 1000 nM,38.9%
same,percent inhibition of viability,[5]; 10000 nM,56%
same,percent inhibition of viability,[6]; 1 nM,-7.95%
same,percent inhibition of viability,[6]; 10 nM,-5.73%
same,percent inhibition of viability,[6]; 100 nM,1.42%
same,percent inhibition of viability,[6]; 1000 nM,28.5%
same,percent inhibition of viability,[6]; 10000 nM,39.5%
same,percent inhibition of viability,[7]; 1 nM,1.05%
same,percent inhibition of viability,[7]; 10 nM,7.39%
same,percent inhibition of viability,[7]; 100 nM,20.1%
same,percent inhibition of viability,[7]; 1000 nM,32.9%
same,percent inhibition of viability,[7]; 10000 nM,43.8%
same,percent inhibition of viability,[8]; 1 nM,2.1%
same,percent inhibition of viability,[8]; 10 nM,17%
same,percent inhibition of viability,[8]; 100 nM,15%
same,percent inhibition of viability,[8]; 1000 nM,11.9%
same,percent inhibition of viability,[8]; 10000 nM,77.3%
same,percent inhibition of viability,[9]; 1 nM,15.8%
same,percent inhibition of viability,[9]; 10 nM,-24.2%
same,percent inhibition of viability,[9]; 100 nM,-35%
same,percent inhibition of viability,[9]; 1000 nM,-26.7%
same,percent inhibition of viability,[9]; 10000 nM,-18.3%
same,percent inhibition of viability,[10]; 1 nM,-4.4%
same,percent inhibition of viability,[10]; 10 nM,5.94%
same,percent inhibition of viability,[10]; 100 nM,-1.61%
same,percent inhibition of viability,[10]; 1000 nM,16.7%
same,percent inhibition of viability,[10]; 10000 nM,64.4%
same,percent inhibition of viability,[11]; 1 nM,0.7%
same,percent inhibition of viability,[11]; 10 nM,-2.5%
same,percent inhibition of viability,[11]; 100 nM,14.2%
same,percent inhibition of viability,[11]; 1000 nM,32.4%
same,percent inhibition of viability,[11]; 10000 nM,71.7%
same,percent inhibition of viability,[12]; 1 nM,-9.12%
same,percent inhibition of viability,[12]; 10 nM,-11.9%
same,percent inhibition of viability,[12]; 100 nM,19.5%
same,percent inhibition of viability,[12]; 1000 nM,68.8%
same,percent inhibition of viability,[12]; 10000 nM,83%
same,percent inhibition of viability,[13]; 1 nM,-1.97%
same,percent inhibition of viability,[13]; 10 nM,-1.61%
same,percent inhibition of viability,[13]; 100 nM,3.93%
same,percent inhibition of viability,[13]; 1000 nM,27.9%
same,percent inhibition of viability,[13]; 10000 nM,53.1%
same,percent inhibition of viability,[14]; 1 nM,-8.47%
same,percent inhibition of viability,[14]; 10 nM,-19.6%
same,percent inhibition of viability,[14]; 100 nM,-9.22%
same,percent inhibition of viability,[14]; 1000 nM,2.66%
same,percent inhibition of viability,[14]; 10000 nM,28.9%
same,drug sensitivity score,[15],2.81
same,drug sensitivity score,[16],18
same,drug sensitivity score,[17],1.21
same,drug sensitivity score,[18],1.15
same,drug sensitivity score,[19],7.83
same,drug sensitivity score,[20],5.36
same,drug sensitivity score,[21],8.33
same,drug sensitivity score,[22],6.28
same,drug sensitivity score,[23],0
same,drug sensitivity score,[24],6.11
same,drug sensitivity score,[25],8
same,drug sensitivity score,[26],15.1
same,drug sensitivity score,[27],6.04
same,drug sensitivity score,[28],1.63
CC1=C(/C=C/C(C)=C/C=C/C(C)=C/C(=O)O)C(C)(C)CCC1 [Tretinoin] (max concentration tested 10000 nM),percent inhibition of viability,[1]; 1 nM,-4.58%
same,percent inhibition of viability,[1]; 10 nM,-6.04%
same,percent inhibition of viability,[1]; 100 nM,-10.1%
same,percent inhibition of viability,[1]; 1000 nM,-14.2%
same,percent inhibition of viability,[1]; 10000 nM,-11.4%
same,percent inhibition of viability,[2]; 1 nM,0.02%
same,percent inhibition of viability,[2]; 10 nM,-9.97%
same,percent inhibition of viability,[2]; 100 nM,-17.2%
same,percent inhibition of viability,[2]; 1000 nM,-1.93%
same,percent inhibition of viability,[2]; 10000 nM,1.55%
same,percent inhibition of viability,[3]; 1 nM,-5.65%
same,percent inhibition of viability,[3]; 10 nM,-8.65%
same,percent inhibition of viability,[3]; 100 nM,-8.92%
same,percent inhibition of viability,[3]; 1000 nM,-15.6%
same,percent inhibition of viability,[3]; 10000 nM,-11.9%
same,percent inhibition of viability,[4]; 1 nM,-2.48%
same,percent inhibition of viability,[4]; 10 nM,-3.65%
same,percent inhibition of viability,[4]; 100 nM,-1.2%
same,percent inhibition of viability,[4]; 1000 nM,3.75%
same,percent inhibition of viability,[4]; 10000 nM,16%
same,percent inhibition of viability,[5]; 1 nM,-3.1%
same,percent inhibition of viability,[5]; 10 nM,-0.61%
same,percent inhibition of viability,[5]; 100 nM,11.5%
same,percent inhibition of viability,[5]; 1000 nM,20.8%
same,percent inhibition of viability,[5]; 10000 nM,33%
same,percent inhibition of viability,[6]; 1 nM,-0.77%
same,percent inhibition of viability,[6]; 10 nM,-12.9%
same,percent inhibition of viability,[6]; 100 nM,-9.35%
same,percent inhibition of viability,[6]; 1000 nM,0.15%
same,percent inhibition of viability,[6]; 10000 nM,-0.14%
same,percent inhibition of viability,[7]; 1 nM,-3.42%
same,percent inhibition of viability,[7]; 10 nM,-0.23%
same,percent inhibition of viability,[7]; 100 nM,9.86%
same,percent inhibition of viability,[7]; 1000 nM,11.1%
same,percent inhibition of viability,[7]; 10000 nM,28.9%
same,percent inhibition of viability,[8]; 1 nM,-12.8%
same,percent inhibition of viability,[8]; 10 nM,-0.36%
same,percent inhibition of viability,[8]; 100 nM,-1.84%
same,percent inhibition of viability,[8]; 1000 nM,17.5%
same,percent inhibition of viability,[8]; 10000 nM,39.7%
same,percent inhibition of viability,[9]; 1 nM,-9.38%
same,percent inhibition of viability,[9]; 10 nM,11.7%
same,percent inhibition of viability,[9]; 100 nM,19.6%
same,percent inhibition of viability,[9]; 1000 nM,-4.95%
same,percent inhibition of viability,[9]; 10000 nM,10.5%
same,percent inhibition of viability,[10]; 1 nM,-1.46%
same,percent inhibition of viability,[10]; 10 nM,-2.61%
same,percent inhibition of viability,[10]; 100 nM,-3.8%
same,percent inhibition of viability,[10]; 1000 nM,-1.99%
same,percent inhibition of viability,[10]; 10000 nM,3.09%
same,percent inhibition of viability,[11]; 1 nM,-4.29%
same,percent inhibition of viability,[11]; 10 nM,-17%
same,percent inhibition of viability,[11]; 100 nM,-11.3%
same,percent inhibition of viability,[11]; 1000 nM,-4.32%
same,percent inhibition of viability,[11]; 10000 nM,10.6%
same,percent inhibition of viability,[12]; 1 nM,-8.15%
same,percent inhibition of viability,[12]; 10 nM,-5.96%
same,percent inhibition of viability,[12]; 100 nM,-18.7%
same,percent inhibition of viability,[12]; 1000 nM,18.4%
same,percent inhibition of viability,[12]; 10000 nM,26.4%
same,percent inhibition of viability,[13]; 1 nM,-8.71%
same,percent inhibition of viability,[13]; 10 nM,-3.05%
same,percent inhibition of viability,[13]; 100 nM,-10.2%
same,percent inhibition of viability,[13]; 1000 nM,-13.1%
same,percent inhibition of viability,[13]; 10000 nM,1.08%
same,percent inhibition of viability,[14]; 1 nM,-4.65%
same,percent inhibition of viability,[14]; 10 nM,-2.78%
same,percent inhibition of viability,[14]; 100 nM,-10.4%
same,percent inhibition of viability,[14]; 1000 nM,-7.74%
same,percent inhibition of viability,[14]; 10000 nM,-8.57%
same,drug sensitivity score,[15],0
same,drug sensitivity score,[16],0
same,drug sensitivity score,[17],0
same,drug sensitivity score,[18],0.68
same,drug sensitivity score,[19],4.32
same,drug sensitivity score,[20],0
same,drug sensitivity score,[21],2.28
same,drug sensitivity score,[22],4.28
same,drug sensitivity score,[23],0
same,drug sensitivity score,[24],0
same,drug sensitivity score,[25],0
same,drug sensitivity score,[26],3.02
same,drug sensitivity score,[27],0
same,drug sensitivity score,[28],0
